Legend:
Assay in all cases: biochemical
Type in all cases: binding
panel of 442 kinases [1] = molecular target: T1, panel of 442 kinases (Homo sapiens, UniProt P06213); conditions: kinase INSR; for remaining activity at 1 µM: read-out: % of control at 1 µM
T1 construct: purchased Ambit Biosciences (scanMAXX KINOMEscan)

panel of 442 kinases [2] = molecular target: T2, panel of 442 kinases (Homo sapiens, UniProt P07949, V804L); conditions: kinase RET(V804L); for remaining activity at 1 µM: read-out: RET(V804L) (% of control at 1 µM)
T2 construct: purchased Ambit Biosciences (scanMAXX KINOMEscan)

panel of 442 kinases [3] = molecular target: T3, panel of 442 kinases (Homo sapiens, UniProt P10721, A829P); conditions: kinase KIT(A829P); for remaining activity at 1 µM: read-out: % of control at 1 µM
T3 construct: purchased Ambit Biosciences (scanMAXX KINOMEscan)

panel of 442 kinases [4] = molecular target: T4, panel of 442 kinases (Homo sapiens, UniProt Q13557); conditions: CAMK2D; for remaining activity at 1 µM: read-out: % of control at 1 µM
T4 construct: purchased Ambit Biosciences (scanMAXX KINOMEscan)

panel of 442 kinases [5] = molecular target: T5, panel of 442 kinases (Homo sapiens, UniProt Q15303); conditions: ERBB4; for remaining activity at 1 µM: read-out: % of control at 1 µM
T5 construct: purchased Ambit Biosciences (scanMAXX KINOMEscan)

panel of 442 kinases [6] = molecular target: T6, panel of 442 kinases (Homo sapiens, UniProt Q15375); conditions: EPHA7; for remaining activity at 1 µM: read-out: % of control at 1 µM
T6 construct: purchased Ambit Biosciences (scanMAXX KINOMEscan)

panel of 442 kinases [7] = molecular target: T7, panel of 442 kinases (Homo sapiens, UniProt Q5S007); conditions: kinase LRRK2; for remaining activity at 1 µM: read-out: % of control at 1 µM
T7 construct: purchased Ambit Biosciences (scanMAXX KINOMEscan)

panel of 442 kinases [8] = molecular target: T8, panel of 442 kinases (Homo sapiens, UniProt Q8WXR4); conditions: kinase MYO3B; for remaining activity at 1 µM: read-out: % of control at 1 µM
T8 construct: purchased Ambit Biosciences (scanMAXX KINOMEscan)
T8 sequence (Q8WXR4 1-1341): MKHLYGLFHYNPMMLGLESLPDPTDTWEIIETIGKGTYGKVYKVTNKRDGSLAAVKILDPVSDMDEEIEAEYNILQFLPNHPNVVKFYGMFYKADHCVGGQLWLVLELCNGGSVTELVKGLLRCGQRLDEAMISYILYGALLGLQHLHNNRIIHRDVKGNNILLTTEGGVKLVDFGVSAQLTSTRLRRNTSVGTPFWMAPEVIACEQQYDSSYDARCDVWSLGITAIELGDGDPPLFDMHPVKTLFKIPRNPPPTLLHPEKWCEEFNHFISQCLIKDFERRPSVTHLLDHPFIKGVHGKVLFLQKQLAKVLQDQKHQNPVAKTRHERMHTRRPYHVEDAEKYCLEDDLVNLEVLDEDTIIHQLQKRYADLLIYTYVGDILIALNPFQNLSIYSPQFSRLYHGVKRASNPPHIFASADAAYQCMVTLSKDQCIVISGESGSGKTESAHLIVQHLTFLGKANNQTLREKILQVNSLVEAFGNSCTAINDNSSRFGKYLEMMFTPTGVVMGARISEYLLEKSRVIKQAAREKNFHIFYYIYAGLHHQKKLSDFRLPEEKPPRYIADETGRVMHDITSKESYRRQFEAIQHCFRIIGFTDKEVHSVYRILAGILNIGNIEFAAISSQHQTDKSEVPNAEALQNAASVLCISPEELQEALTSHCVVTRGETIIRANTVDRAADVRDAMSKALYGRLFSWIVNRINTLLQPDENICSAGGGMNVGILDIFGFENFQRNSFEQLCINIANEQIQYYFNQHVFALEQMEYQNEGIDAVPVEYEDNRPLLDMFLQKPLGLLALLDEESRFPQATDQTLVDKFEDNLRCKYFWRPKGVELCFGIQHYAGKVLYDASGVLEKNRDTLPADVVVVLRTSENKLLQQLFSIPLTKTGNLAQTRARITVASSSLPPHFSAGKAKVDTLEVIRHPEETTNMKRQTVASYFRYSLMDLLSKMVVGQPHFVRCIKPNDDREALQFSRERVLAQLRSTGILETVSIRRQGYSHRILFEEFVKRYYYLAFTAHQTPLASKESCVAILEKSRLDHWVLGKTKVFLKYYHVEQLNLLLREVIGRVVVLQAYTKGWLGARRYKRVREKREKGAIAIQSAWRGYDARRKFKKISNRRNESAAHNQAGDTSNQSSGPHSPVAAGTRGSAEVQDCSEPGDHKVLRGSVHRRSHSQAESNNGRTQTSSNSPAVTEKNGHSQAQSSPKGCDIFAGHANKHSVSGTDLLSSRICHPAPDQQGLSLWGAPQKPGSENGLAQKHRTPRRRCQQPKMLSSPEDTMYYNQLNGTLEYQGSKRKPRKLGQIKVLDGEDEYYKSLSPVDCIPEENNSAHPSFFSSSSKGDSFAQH

panel of 442 kinases [9] = molecular target: T9, panel of 442 kinases (Homo sapiens, UniProt Q92918); conditions: kinase HPK1; for remaining activity at 1 µM: read-out: % of control at 1 µM
T9 construct: purchased Ambit Biosciences (scanMAXX KINOMEscan)

panel of 442 kinases [10] = molecular target: T10, panel of 442 kinases (Homo sapiens, UniProt Q96NX5); conditions: CAMK1G; for remaining activity at 1 µM: read-out: % of control at 1 µM
T10 construct: purchased Ambit Biosciences (scanMAXX KINOMEscan)

panel of 442 kinases [11] = molecular target: T11, panel of 442 kinases (Homo sapiens, UniProt Q96SB4); conditions: kinase SRPK1; for remaining activity at 1 µM: read-out: SRPK1 (% of control at 1 µM)
T11 construct: purchased Ambit Biosciences (scanMAXX KINOMEscan)

panel of 442 kinases [12] = molecular target: T12, panel of 442 kinases (Homo sapiens, UniProt Q9P289); conditions: kinase MST4; for remaining activity at 1 µM: read-out: % of control at 1 µM
T12 construct: purchased Ambit Biosciences (scanMAXX KINOMEscan)

panel of 442 kinases [13] = molecular target: T13, panel of 442 kinases (Homo sapiens, UniProt Q9Y2K2); conditions: kinase QSK; for remaining activity at 1 µM: read-out: QSK (% of control at 1 µM)
T13 construct: purchased Ambit Biosciences (scanMAXX KINOMEscan)

[14] = 10 µM, read-out: % of control at 10 µM

T2 sequence (P07949 29-1114 V804L): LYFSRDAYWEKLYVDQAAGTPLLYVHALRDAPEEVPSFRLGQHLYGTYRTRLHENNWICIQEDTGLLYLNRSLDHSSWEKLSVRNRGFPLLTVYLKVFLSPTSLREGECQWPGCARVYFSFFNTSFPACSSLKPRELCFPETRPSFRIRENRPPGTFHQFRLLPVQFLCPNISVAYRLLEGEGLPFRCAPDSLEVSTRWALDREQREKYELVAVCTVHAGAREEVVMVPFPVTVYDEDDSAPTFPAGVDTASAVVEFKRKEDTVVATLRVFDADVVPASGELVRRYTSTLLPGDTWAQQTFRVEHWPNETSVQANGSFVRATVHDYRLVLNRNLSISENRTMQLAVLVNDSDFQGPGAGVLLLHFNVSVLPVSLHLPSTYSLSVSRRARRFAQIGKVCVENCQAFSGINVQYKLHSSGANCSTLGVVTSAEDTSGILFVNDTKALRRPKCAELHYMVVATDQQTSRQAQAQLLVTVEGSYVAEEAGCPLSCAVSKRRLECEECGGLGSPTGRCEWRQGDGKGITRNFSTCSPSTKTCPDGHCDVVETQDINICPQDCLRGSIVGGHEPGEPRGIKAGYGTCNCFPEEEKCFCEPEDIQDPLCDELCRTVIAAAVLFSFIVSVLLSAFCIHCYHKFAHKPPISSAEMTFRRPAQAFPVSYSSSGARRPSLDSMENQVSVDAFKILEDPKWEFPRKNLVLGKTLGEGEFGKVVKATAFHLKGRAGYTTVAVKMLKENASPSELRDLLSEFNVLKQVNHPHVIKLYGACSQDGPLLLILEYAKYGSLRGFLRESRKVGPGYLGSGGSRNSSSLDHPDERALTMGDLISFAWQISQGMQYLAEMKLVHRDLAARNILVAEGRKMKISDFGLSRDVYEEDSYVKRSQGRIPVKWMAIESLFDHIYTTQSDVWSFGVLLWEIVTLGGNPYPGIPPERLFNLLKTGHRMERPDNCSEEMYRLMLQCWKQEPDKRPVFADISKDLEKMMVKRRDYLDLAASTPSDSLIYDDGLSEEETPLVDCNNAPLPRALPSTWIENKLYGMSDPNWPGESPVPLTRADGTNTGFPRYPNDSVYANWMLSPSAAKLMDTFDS
T6 sequence (Q15375 28-998): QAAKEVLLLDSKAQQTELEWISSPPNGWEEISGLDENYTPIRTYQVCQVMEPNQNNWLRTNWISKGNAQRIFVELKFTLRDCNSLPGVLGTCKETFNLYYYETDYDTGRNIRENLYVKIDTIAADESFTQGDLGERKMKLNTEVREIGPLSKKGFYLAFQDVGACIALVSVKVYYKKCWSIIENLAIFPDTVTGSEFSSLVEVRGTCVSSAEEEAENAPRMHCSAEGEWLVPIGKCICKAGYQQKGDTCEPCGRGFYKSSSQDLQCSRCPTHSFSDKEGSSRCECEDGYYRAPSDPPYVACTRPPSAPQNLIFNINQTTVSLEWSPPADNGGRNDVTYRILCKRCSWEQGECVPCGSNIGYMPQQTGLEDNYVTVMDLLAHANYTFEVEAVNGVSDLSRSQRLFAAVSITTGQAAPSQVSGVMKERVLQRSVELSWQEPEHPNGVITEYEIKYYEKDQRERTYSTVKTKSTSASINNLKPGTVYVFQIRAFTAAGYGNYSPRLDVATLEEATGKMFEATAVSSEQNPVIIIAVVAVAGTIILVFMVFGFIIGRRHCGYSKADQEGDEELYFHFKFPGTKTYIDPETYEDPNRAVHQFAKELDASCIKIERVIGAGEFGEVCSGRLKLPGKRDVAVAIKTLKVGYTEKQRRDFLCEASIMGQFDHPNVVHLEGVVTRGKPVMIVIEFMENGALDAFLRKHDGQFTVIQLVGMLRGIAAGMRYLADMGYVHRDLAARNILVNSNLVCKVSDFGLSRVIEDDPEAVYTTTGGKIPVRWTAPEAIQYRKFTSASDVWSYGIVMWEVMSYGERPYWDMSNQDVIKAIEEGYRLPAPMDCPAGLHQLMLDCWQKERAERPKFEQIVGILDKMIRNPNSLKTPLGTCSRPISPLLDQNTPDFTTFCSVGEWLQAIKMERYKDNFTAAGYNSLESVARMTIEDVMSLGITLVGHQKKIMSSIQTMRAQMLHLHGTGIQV
T5 sequence (Q15303 26-1308): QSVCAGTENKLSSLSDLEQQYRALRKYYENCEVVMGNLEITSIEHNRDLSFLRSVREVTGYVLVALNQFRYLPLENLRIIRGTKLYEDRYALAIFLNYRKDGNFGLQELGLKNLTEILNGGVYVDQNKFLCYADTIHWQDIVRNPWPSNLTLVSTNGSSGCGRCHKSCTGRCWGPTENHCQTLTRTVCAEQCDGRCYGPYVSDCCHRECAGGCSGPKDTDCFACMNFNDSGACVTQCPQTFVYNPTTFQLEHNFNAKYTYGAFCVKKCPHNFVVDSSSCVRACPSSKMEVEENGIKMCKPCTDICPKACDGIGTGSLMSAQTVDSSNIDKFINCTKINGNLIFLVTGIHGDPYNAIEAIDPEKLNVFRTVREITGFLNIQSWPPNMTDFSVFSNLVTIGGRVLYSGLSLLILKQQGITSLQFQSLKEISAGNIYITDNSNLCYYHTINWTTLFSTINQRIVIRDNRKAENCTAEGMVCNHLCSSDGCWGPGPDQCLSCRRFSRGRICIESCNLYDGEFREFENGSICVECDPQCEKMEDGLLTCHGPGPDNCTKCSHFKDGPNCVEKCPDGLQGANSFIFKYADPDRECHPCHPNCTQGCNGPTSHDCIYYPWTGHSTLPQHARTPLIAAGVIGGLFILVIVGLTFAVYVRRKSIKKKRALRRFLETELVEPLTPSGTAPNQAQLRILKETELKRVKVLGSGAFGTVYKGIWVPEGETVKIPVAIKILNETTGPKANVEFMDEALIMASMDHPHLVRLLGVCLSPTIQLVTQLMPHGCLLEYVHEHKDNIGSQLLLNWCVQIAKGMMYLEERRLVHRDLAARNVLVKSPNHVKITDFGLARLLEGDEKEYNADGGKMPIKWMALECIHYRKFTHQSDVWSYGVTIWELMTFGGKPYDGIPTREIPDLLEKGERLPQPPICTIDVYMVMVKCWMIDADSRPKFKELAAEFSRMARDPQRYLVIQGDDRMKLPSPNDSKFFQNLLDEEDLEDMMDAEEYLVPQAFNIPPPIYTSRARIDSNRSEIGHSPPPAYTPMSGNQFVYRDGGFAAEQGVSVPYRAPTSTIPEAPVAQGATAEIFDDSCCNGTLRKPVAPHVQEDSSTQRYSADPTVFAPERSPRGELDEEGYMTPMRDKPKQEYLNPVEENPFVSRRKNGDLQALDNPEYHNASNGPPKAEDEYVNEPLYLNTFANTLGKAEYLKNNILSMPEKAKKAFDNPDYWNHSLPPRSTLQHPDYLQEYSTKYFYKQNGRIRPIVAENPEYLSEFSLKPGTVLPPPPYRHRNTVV
T1 sequence (P06213 28-1382): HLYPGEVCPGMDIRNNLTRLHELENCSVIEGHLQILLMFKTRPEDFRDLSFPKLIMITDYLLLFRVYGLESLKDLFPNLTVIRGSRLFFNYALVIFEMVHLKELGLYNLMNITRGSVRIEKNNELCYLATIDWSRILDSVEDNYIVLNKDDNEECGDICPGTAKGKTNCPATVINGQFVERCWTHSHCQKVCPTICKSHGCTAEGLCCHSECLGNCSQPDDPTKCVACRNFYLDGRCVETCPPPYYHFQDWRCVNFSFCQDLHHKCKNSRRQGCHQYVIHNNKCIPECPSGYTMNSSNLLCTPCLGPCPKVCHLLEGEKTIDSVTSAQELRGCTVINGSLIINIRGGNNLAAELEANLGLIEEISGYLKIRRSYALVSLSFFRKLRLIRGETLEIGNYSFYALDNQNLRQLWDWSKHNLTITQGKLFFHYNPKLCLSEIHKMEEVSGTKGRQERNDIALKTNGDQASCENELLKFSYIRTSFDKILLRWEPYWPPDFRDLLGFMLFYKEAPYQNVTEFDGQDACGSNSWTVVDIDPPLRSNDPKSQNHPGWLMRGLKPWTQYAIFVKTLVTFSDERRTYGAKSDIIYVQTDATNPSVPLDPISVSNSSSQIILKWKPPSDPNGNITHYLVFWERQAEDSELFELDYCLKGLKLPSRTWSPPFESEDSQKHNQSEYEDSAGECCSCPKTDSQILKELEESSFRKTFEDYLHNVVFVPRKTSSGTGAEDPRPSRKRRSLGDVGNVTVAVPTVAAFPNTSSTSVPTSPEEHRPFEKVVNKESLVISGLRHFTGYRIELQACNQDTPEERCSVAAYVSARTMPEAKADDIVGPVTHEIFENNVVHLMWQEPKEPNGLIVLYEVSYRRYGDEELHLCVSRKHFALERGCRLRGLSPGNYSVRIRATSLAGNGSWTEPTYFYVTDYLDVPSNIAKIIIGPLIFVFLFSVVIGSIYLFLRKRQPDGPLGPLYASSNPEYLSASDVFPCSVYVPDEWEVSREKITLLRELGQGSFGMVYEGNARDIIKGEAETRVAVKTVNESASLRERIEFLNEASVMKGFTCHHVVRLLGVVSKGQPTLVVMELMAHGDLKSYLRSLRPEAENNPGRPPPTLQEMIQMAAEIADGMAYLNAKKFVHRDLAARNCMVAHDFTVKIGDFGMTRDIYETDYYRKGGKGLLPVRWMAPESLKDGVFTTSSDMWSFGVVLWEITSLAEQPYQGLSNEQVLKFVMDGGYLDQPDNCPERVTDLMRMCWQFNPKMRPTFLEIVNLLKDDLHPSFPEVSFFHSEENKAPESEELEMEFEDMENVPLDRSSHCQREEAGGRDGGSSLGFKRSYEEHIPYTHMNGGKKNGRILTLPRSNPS
T12 sequence (Q9P289 whole entry): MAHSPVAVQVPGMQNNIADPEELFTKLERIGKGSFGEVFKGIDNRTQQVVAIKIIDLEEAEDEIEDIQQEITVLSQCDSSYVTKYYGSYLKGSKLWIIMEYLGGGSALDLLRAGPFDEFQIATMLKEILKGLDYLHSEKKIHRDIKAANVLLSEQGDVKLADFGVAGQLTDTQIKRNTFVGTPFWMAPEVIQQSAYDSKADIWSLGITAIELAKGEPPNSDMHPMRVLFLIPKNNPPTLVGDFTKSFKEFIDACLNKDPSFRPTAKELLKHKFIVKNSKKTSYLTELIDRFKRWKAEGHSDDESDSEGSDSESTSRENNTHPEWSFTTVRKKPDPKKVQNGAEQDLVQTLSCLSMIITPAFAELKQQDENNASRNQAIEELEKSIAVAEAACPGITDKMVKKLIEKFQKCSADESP

Compound	remaining activity at 1 µM (panel of 442 kinases [1]) [%]	remaining activity at 1 µM (panel of 442 kinases [2]) [%]	remaining activity at 1 µM (panel of 442 kinases [3]) [%]	remaining activity at 1 µM (panel of 442 kinases [4]) [%]	remaining activity at 1 µM (panel of 442 kinases [5]) [%]	remaining activity at 1 µM (panel of 442 kinases [6]) [%]	remaining activity at 1 µM (panel of 442 kinases [7]) [%]	remaining activity at 1 µM (panel of 442 kinases [8]) [%]	remaining activity at 1 µM (panel of 442 kinases [9]) [%]	remaining activity at 1 µM (panel of 442 kinases [10]) [%]	remaining activity at 1 µM (panel of 442 kinases [11]) [%]	remaining activity at 1 µM (panel of 442 kinases [12]) [%]	remaining activity at 1 µM (panel of 442 kinases [13]) [%]	other results
Nc1cc(C(F)(F)F)c(-c2cc(N3CCOCC3)nc(N3CCOCC3)n2)cn1 [Buparlisib]	91	100	100	100	69	100	80	51	92	100	100	100	100	remaining activity at 10 µM (panel of 442 kinases [1]; [14]): 77%; remaining activity at 10 µM (panel of 442 kinases [2]; 10 µM, read-out: RET(V804L) (% of control at 10 µM)): 100%; remaining activity at 10 µM (panel of 442 kinases [3]; [14]): 98%; remaining activity at 10 µM (panel of 442 kinases [4]; [14]): 100%; remaining activity at 10 µM (panel of 442 kinases [5]; [14]): 100%; remaining activity at 10 µM (panel of 442 kinases [6]; [14]): 100%; remaining activity at 10 µM (panel of 442 kinases [7]; [14]): 100%; remaining activity at 10 µM (panel of 442 kinases [8]; [14]): 73%; remaining activity at 10 µM (panel of 442 kinases [9]; [14]): 100%; remaining activity at 10 µM (panel of 442 kinases [10]; [14]): 100%; remaining activity at 10 µM (panel of 442 kinases [11]; 10 µM, read-out: SRPK1 (% of control at 10 µM)): 100%; remaining activity at 10 µM (panel of 442 kinases [12]; [14]): 74%; remaining activity at 10 µM (panel of 442 kinases [13]; 10 µM, read-out: QSK (% of control at 10 µM)): 100%
Cn1c(=O)n(-c2ccc(C(C)(C)C#N)cc2)c2c3cc(-c4cnc5ccccc5c4)ccc3ncc21 [Dactolisib, 2-methyl-2-[4-(3-methyl-2-oxo-8-quinolin-3-yl-2,3-dihydroimidazo[4,5-c]quinolin-1-yl)-phenyl] propionitrile]	74	99	61	79	100	100	52	81	64	87	88	76	100	–
COc1ncc(-c2ccc3nccc(-c4ccnnc4)c3c2)cc1NS(=O)(=O)c1ccc(F)cc1F [Omipalisib]	92	99	100	100	100	100	96	91	100	100	100	91	100	–
FC(F)c1nc2ccccc2n1-c1nc(N2CCOCC2)nc(N2CCOCC2)n1 [ZSTK474, 2-(difluoromethyl)-1-[4,6-di(4-morpholinyl)-1,3,5-triazin-2-yl]-1H-benzimidazole]	94	93	90	88	100	100	100	64	93	91	67	68	65	–

Reference: PMC5564600 (Oncotarget, 2017)
